Results from patent publication US10975083B2, “Blood-brain barrier-penetrant dopamine-β-hydroxylase inhibitors” (BIAL—PORTELA & Cᵃ, S.A., priority 2016, dated 2021).
Where two headings read alike, the source gives them in different places.

Molecular target: T1, DβH (Homo sapiens, UniProt P09172)
T1 construct: reaction mixture (total volume 500 μl) contained: cellular homogenate (75 μg total protein); host or cells: SK-N-SH cell homogenate
T1 sequence (P09172 1-617): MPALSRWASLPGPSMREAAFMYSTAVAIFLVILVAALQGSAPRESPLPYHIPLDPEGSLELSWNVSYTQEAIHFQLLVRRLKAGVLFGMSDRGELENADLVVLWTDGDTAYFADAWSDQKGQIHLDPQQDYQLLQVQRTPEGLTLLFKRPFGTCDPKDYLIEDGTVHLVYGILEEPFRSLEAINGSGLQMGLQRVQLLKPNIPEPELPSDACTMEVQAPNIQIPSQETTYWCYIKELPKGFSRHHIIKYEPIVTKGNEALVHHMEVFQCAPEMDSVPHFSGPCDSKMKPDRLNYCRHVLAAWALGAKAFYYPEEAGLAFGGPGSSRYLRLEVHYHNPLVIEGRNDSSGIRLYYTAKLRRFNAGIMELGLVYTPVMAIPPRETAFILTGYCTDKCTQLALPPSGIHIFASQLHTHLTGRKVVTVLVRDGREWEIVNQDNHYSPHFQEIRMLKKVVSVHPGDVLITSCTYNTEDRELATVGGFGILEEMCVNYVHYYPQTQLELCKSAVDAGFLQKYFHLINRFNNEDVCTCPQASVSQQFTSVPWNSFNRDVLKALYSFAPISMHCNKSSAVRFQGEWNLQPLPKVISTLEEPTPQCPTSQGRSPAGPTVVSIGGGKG
Experiment: DβH inhibition cell assay (SK-N-SH cellular homogenates, tyramine to octopamine)
Format: biochemical
Settings: for remaining activity at 1 µM: read-out: DβH activity in % of Ctrl (1 μM); for remaining activity at 0.1 µM: inhibitor 0.1 μM, read-out: DβH activity in % of Ctrl (0.1 μM)
Experimental: The ability of a compound to inhibit DβH activity may be assessed using the following cell assay. […] . […] Fetal bovine serum was removed from cells for 4 h prior to collection.
For the preparation of cellular homogenates, media was removed and cell monolayers were washed with 50 mM Tris-HCl pH 7.4. Cells were subsequently scrapped off the flasks and were resuspended in 50 mM Tris pH 7.4. Cell suspensions were homogenized with SilentCrusher M (Heidolph) for a short stroke and resultant homogenates were aliquoted and stored frozen at −80° C.
Total protein was quantified in cellular homogenates with BioRad Protein Assay (BioRad) using a standard curve of BSA (50-250 μg/mL).
DβH activity was measured by a modification of the method of Nagatsu and Udenfriend (Nagatsu, T. and S. Udenfriend: “Photometric assay of dopamine-hydroxylase activity in human blood.” Clin. Chem. 18(9): 980-3, 1972) which is based on the enzymatic hydroxylation of tyramine into octopamine. The octopamine formed is subsequently oxidized to p-hydroxybenzaldehyde and measured by spectrophotometry. In brief, reaction mixture (total volume 500 μl) contained: cellular homogenate (75 μg total protein) sodium acetate pH 5.0 (200 mM), NEM (30 mM), CuSO4 (5 μM), catalase aqueous solution (0.5 mg/mL), pargyline-HCl (1 mM), sodium fumarate (10 mM), ascorbic acid (10 mM), inhibitor or vehicle and tyramine (25 mM). After a 10 min pre-incubation period at 37° C., the reaction was initiated by the addition of tyramine. Reaction was carried out for 45 min at 37° C. before termination with 50 μl PCA (2 M).
Samples were centrifuged for 3 min at 16100 g and supernatants were subjected to solid phase extraction. Solid phase extraction was performed using either SPE cartridges ISOLUTE SCX-3 (100 mg, 1 mL) or SPE 2 mL fixed 96 well plates ISOLUTE SCX-3 (100 mg) previously equilibrated with MilliQ water. Columns/plates were centrifuged at 150 g for 2 min. Eluate was discarded and matrix was washed with 1 mL of MilliQ water after which octopamine was eluted with 2×0.25 mL ammonium hydroxide (4 M). The oxidation of octopamine to p-hydroxybenzaldehyde was carried out for 6 min with 100 μl sodium periodate (2%) and was stopped with 100 μl sodium metabisulfite (10%). Absorbance was measured at 330 nm on a Spectramax microplate reader (Molecular Devices, Sunnyvale, Calif.). All enzymatic reactions were performed in duplicate. Results are reported in the table below as activity in % of control at the inhibitor concentration tested.

[1] = inhibitor 1 μM, SK-N-SH cell homogenate

Compound | remaining activity at 1 µM [1] [%] | remaining activity at 0.1 µM (SK-N-SH cell homogenate) [%] | remaining activity at 1 µM [%]
Cc1[nH]c(=S)n2c1[C@@H]1C[C@]1(c1cc(F)cc(F)c1)C2 [Example 79, (5aS,6aR)-5a-(3,5-difluorophenyl)-1-methyl-5,5a,6,6a-tetrahydrocyclopropa[3,4]pyrrolo[1,2-c]imidazole-3 (2H)-thione] | 13 | – | –
CCCCc1[nH]c(=S)n2c1C[C@@H](c1cc(F)cc(F)c1)C2 [Example 80, (S)-1-butyl-6-(3,5-difluorophenyl)-6,7-dihydro-2H-pyrrolo[1,2-c]imidazole-3(5H)-thione] | – | – | 56.7
S=c1[nH]cc2n1CC(C1CCCCC1)C2 (stereo not drawn) [Example 81, 6-cyclohexyl-6,7-dihydro-2H-pyrrolo[1,2-c]imidazole-3(5H)-thione] | 59.4 | – | –
Fc1cc(F)c(F)c([C@@H]2Cc3c[nH]c(=S)n3C2)c1 [Example 82, (S)-6-(2,3,5-trifluorophenyl)-2,5,6,7-tetrahydro-3H-pyrrolo[1,2-c]imidazole-3-thione] | 20 | 90 | –
Fc1cc(F)c(F)c([C@H]2Cc3c[nH]c(=S)n3C2)c1 [Example 83, (R)-6-(2,3,5-trifluorophenyl)-2,5,6,7-tetrahydro-3H-pyrrolo[1,2-c]imidazole-3-thione] | 33.1 | 84 | –
Fc1cccc(F)c1[C@@H]1Cc2c[nH]c(=S)n2C1 [Example 84, (S)-6-(2,6-difluorophenyl)-2,5,6,7-tetrahydro-3H-pyrrolo[1,2-c]imidazole-3-thione] | 41.9 | 96.9 | –
Fc1ccc(Cl)c(F)c1[C@@H]1Cc2c[nH]c(=S)n2C1 [Example 85, (S)-6-(3-chloro-2,6-difluorophenyl)-2,5,6,7-tetrahydro-3H-pyrrolo[1,2-c]imidazole-3-thione] | 0 | 0 | –
Fc1ccc(Cl)c(F)c1[C@H]1Cc2c[nH]c(=S)n2C1 [Example 86, (R)-6-(3-chloro-2,6-difluorophenyl)-2,5,6,7-tetrahydro-3H-pyrrolo[1,2-c]imidazole-3-thione] | 0 | 25.3 | –
Fc1cccc(F)c1[C@H]1Cc2c[nH]c(=S)n2C1 [Example 87, (R)-6-(2,6-difluorophenyl)-2,5,6,7-tetrahydro-3H-pyrrolo[1,2-c]imidazole-3-thione] | 0 | 36.5 | –
Fc1ccc(Cl)c(F)c1[C@]12C[C@H]1c1n[nH]c(=S)n1C2 [Example 88, (5aS,6aR)-5a-(3-chloro-2,6-difluorophenyl)-5,5a,6,6a-tetrahydrocyclopropa[3,4]pyrrolo[2,1-c][1,2,4]triazole-3(2H)-thione] | 6.2 | 45.8 | –
Fc1cccc(Cl)c1[C@]12C[C@H]1c1c[nH]c(=S)n1C2 [Example 89, (5aS,6aR)-5a-(2-chloro-6-fluorophenyl)-5,5a,6,6a-tetrahydrocyclopropa[3,4]pyrrolo[1,2-c]imidazole-3 (2H)-thione] | 29.8 | – | –
Fc1ccc(Cl)c(F)c1[C@]12C[C@H]1c1c[nH]c(=S)n1C2 [Example 90, (5aS,6aR)-5a-(3-chloro-2,6-difluorophenyl)-5,5a,6,6a-tetrahydrocyclopropa[3,4]pyrrolo[1,2-c]imidazole-3 (2H)-thione] | 1 | 1.8 | –
[2H]C1([2H])n2c(c[nH]c2=S)[C@@H]2C[C@@]21c1cc(Cl)ccc1F [Example 91, (5aS,6aR)-5a-(5-chloro-2-fluorophenyl)-5,5a,6,6a-tetrahydrocyclopropa[3,4]pyrrolo[1,2-c]imidazole-3(2H)-thione-5,5-d2] | 0 | 22 | –
Cc1[nH]c(=S)n2c1C[C@@H](c1cc(F)cc(F)c1)C2 [Example 95, (S)-6-(3,5-difluorophenyl)-1-methyl-2,5,6,7-tetrahydro-3H-pyrrolo[1,2-c]imidazole-3-thione] | – | – | 28.9

Second part, led by results:

remaining activity at 1 µM [1] [%] | remaining activity at 0.1 µM (SK-N-SH cell homogenate) [%] | Compound | remaining activity at 1 µM [%]
0 | 2 | Fc1c(Cl)cccc1[C@]12C[C@H]1c1c[nH]c(=S)n1C2 [Example 92, (5aS,6aR)-5a-(3-chloro-2-fluorophenyl)-5,5a,6,6a-tetrahydrocyclopropa[3,4]pyrrolo[1,2-c]imidazole-3 (2H)-thione] | –
0 | 0 | Fc1ccc(Br)cc1[C@]12C[C@H]1c1c[nH]c(=S)n1C2 [Example 93, (5aS,6aR)-5a-(5-bromo-2-fluorophenyl)-5,5a,6,6a-tetrahydrocyclopropa[3,4]pyrrolo[1,2-c]imidazole-3 (2H)-thione] | –
0 | 18.1 | Fc1cc(Br)cc([C@]23C[C@H]2c2c[nH]c(=S)n2C3)c1 [Example 94, (5aS,6aR)-5a-(3-bromo-5-fluorophenyl)-5,5a,6,6a-tetrahydrocyclopropa[3,4]pyrrolo[1,2-c]imidazole-3 (2H)-thione] | –
15 | 32 | Cc1[nH]c(=S)n2c1C[C@H](c1c(F)c(F)cc(F)c1F)C2 [Example 96, (R)-1-methyl-6-(2,3,5,6-tetrafluorophenyl)-2,5,6,7-tetrahydro-3H-pyrrolo[1,2-c]imidazole-3-thione] | –
7.9 | 41.9 | Cc1[nH]c(=S)n2c1C[C@@H](c1c(F)c(F)cc(F)c1F)C2 [Example 97, (S)-1-methyl-6-(2,3,5,6-tetrafluorophenyl)-2,5,6,7-tetrahydro-3H-pyrrolo[1,2-c]imidazole-3-thione] | –
39.9 | – | Cc1[nH]c(=S)n2c1C[C@@H](c1c(F)cccc1F)C2 [Example 98, (S)-6-(2,6-difluorophenyl)-1-methyl-2,5,6,7-tetrahydro-3H-pyrrolo[1,2-c]imidazole-3-thione] | –
1 | 31.6 | Cc1[nH]c(=S)n2c1[C@@H]1C[C@]1(c1cc(Cl)ccc1F)C2 [Example 99, (5aS,6aR)-5a-(5-chloro-2-fluorophenyl)-1-methyl-5,5a,6,6a-tetrahydrocyclopropa[3,4]pyrrolo[1,2-c]imidazole-3 (2H)-thione] | –
0 | 0 | [2H]C([2H])([2H])c1[nH]c(=S)n2c1[C@@H]1C[C@]1(c1cc(Cl)ccc1F)C2 [Example 100, (5aS,6aR)-5a-(5-chloro-2-fluorophenyl)-1-(methyl-d3)-5,5a,6,6a-tetrahydrocyclopropa[3,4]pyrrolo[1,2-c]imidazole-3 (2H)-thione] | –
0 | 14.5 | [2H]C([2H])([2H])n1cc2n(c1=S)C[C@@]1(c3cc(Cl)ccc3F)C[C@@H]21 [Example 101, (5aS,6aR)-5a-(5-chloro-2-fluorophenyl)-2-(methyl-d3)-5,5a,6,6a-tetrahydrocyclopropa[3,4]pyrrolo[1,2-c]imidazole-3 (2H)-thione] | –
0 | 32 | [2H]C1([2H])C2([2H])c3c[nH]c(=S)n3CC12c1cc(Cl)ccc1F (stereo not drawn) [Example 102, 5a-(5-chloro-2-fluorophenyl)-5,5a,6,6a-tetrahydrocyclopropa[3,4]pyrrolo[1,2-c]imidazole-3(2H)-thione-6,6,6a-d3] | –
